Converted amounts (≈) assume the structure as drawn. The source made the active and inactive calls. No cut-off for these calls is given here.
What was measured:
[1] = Antifertilization activity in Asterias amurensis sperm assessed as inhibition of sperm motility after 30 mins; format: functional, cell-based
[2] = Antifertilization activity in Asterias amurensis fertilized egg assessed as inhibition of blastula development at 100 uM; format: functional
[3] = Antifertilization activity in Asterias amurensis egg assessed as inhibition of egg activation after 30 mins; format: functional
[4] = Antifertilization activity in Asterias amurensis oocyte assessed as inhibition of 1-methyladenine-induced oocyte maturation at 100 uM; format: functional, cell-based
[5] = Toxicity against Asterias amurensis egg in sea water at 100 uM; conditions: buffer
[6] = Toxicity against Asterias amurensis sperm in sea water at 100 uM; format: cell-based
[7] = Toxicity against Asterias amurensis embryos lysed in sea water at 100 uM; set-up: species or system Embryo; conditions: buffer

MIC [1] | MIC [3] | Compound | Activity [2] | Activity [4] | Activity [5] | Activity [6] | Activity [7]
50 µM (≈ 24.6 µg/mL) | 6.3 µM (≈ 3.1 µg/mL) | C#C/C=C\CCCC/C=C\C#CC#CCCCC#CC#C[C@H](COS(=O)(=O)O)OS(=O)(=O)O | inactive | inactive |  |  | 
13 µM (≈ 4.32 µg/mL) | > 200 µM | C#C/C=C\CCCC/C=C\C#CC#CCCCC#CC#C[C@@H](O)CO [SIPHONODIOL] |  | inactive | Toxic | Toxic | Toxic
100 µM (≈ 41.3 µg/mL) | 50 µM (≈ 20.6 µg/mL) | C#C/C=C\CCCC/C=C\C#CC#CCCCC#CC#C[C@@H](O)COS(=O)(=O)O | inactive | inactive |  |  | 

From ChEMBL document CHEMBL1158309, “Callyspongins A and B: Novel Polyacetylene Sulfates from the Marine Sponge Callyspongia truncata That Inhibit Fertilization of Starfish Gametes” (J Nat Prod, 1996)
